Results on 38 compounds are retold here after patent publication US20230219962A1, “PYRAZOLO[4,3-d]PYRIMIDINE DERIVATIVES AND METHODS OF USE THEREOF FOR THE TREATMENT OF CELLULAR PROLIFERATIVE DISORDERS” (Merck Sharp & Dohme LLC, priority 2020, published 2023).

The target of experiment [1] is T1, hTLR7 (Homo sapiens, UniProt Q9NYK1).
T1 construct: host or cells: HEK-Blue hTLR7 cells (HEK293-derived, own knowledge)
T1 sequence (Q9NYK1 27-1049): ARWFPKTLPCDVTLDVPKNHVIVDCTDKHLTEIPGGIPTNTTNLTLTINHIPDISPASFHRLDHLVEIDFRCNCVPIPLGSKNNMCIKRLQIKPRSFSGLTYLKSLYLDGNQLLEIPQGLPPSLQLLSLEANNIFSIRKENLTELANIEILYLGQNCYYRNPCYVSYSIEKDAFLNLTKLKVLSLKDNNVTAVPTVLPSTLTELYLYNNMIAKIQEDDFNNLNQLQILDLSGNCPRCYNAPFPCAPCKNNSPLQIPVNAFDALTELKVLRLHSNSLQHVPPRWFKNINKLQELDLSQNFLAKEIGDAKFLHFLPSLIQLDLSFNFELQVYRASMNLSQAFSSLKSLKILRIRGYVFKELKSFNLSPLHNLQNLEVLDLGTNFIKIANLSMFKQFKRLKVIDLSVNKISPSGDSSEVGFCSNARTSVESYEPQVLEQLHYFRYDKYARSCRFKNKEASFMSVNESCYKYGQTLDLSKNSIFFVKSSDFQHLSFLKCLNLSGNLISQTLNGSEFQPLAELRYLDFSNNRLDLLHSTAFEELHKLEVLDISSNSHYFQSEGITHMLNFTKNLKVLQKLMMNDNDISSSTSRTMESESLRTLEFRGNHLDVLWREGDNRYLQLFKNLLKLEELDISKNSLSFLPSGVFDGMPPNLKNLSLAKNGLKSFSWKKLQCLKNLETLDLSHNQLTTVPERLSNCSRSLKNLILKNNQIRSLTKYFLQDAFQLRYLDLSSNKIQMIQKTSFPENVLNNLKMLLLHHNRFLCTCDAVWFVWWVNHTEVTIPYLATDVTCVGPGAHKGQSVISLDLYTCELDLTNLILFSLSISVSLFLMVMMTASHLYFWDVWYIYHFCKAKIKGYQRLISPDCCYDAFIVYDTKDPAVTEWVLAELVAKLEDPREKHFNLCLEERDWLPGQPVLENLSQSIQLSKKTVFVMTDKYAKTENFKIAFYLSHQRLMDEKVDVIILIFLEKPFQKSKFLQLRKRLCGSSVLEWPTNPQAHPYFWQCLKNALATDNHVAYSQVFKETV
The experiment is described as follows: Human TLR7 Reporter Assay. It counts as cell-based. The note with it: HEK-Blue hTLR7 cells, 16 hours, normalized to CL097 (6 μM) and DMSO. Put shortly: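 HEK-Blue hTLR7 reporter cells (20,000/well) incubated 16 h at 37 °C with 10-point 3-fold compound dilutions; SEAP read by absorbance at 620 nm. Effects normalized between CL097 (6 μM) and DMSO controls; EC50 from 4-parameter fit.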
(A reporter such as luciferase makes a cellular process visible.)

In experiment [2] the target is T2, hTLR8 (Homo sapiens, UniProt Q9NR97).
T2 construct: host or cells: HEK-Blue hTLR8 cells (HEK293-derived, own knowledge)
T2 sequence (Q9NR97 27-1041): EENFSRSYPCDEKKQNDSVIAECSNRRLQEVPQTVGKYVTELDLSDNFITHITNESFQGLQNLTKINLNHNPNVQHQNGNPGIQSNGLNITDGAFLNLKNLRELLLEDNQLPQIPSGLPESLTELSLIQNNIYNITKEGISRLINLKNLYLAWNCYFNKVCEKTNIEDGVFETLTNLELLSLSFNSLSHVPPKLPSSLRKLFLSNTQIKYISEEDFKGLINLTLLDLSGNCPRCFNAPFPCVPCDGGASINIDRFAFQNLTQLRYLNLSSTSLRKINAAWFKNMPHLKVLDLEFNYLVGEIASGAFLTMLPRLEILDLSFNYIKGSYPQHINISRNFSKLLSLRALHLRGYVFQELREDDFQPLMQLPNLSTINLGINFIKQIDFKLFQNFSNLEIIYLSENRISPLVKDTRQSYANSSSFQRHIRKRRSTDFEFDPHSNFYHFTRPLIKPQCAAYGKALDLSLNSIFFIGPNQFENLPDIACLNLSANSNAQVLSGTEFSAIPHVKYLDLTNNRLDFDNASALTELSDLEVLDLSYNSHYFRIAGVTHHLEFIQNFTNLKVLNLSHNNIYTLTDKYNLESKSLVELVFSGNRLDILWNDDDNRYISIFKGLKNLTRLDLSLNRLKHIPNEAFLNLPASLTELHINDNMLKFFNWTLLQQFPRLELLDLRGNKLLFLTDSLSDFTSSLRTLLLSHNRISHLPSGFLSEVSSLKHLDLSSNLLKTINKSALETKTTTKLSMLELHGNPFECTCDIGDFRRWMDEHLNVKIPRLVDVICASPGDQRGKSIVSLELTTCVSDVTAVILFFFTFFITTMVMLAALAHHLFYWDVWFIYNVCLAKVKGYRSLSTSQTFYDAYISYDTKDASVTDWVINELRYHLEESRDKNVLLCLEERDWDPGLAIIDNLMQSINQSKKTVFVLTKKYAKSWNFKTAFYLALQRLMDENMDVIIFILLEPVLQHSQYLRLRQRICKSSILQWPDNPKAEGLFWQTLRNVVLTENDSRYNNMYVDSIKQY
Kind of experiment: Human TLR8 Reporter Assay. The note with it: HEK-Blue hTLR8 cells, 16 hours, normalized to tl8-506 (1 μM) and DMSO. It counts as cell-based. Put shortly:
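HEK-Blue hTLR8 cells (20,000/well) incubated 16 h at 37 °C with 10-point 3-fold compound dilutions in HEK-Blue Detection medium; reporter read as absorbance at 620 nm. Effects normalized between DMSO and tl8-506 (1 μM); EC50 from 4-parameter fit.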

The EC50 is the concentration at which the effect is half-maximal. A higher EC50 goes with a less potent agent. For the compound `CCCCNc1nc(N)nc2cn(Cc3ccc(CN)cn3)nc12` [Compound 142], the values for the EC50 in experiment [1] and in experiment [2] were 354 nM and 3220 nM, respectively.

`CCCCNc1nc(N)nc2cn(Cc3cccnc3OC)nc12` [Compound 100]: the EC50 in experiment [1] was determined as 74.4 nM; in experiment [2], 499 nM.

For the compound `CCCCNc1nc(N)nc2cn(Cc3cc(CN4CC(CN)C4)ccc3OC)nc12` [Compound 151], the figures for the EC50 in experiment [1] and in experiment [2] were 2260 nM and 869 nM, respectively.

Take `CNc1nc(N)nc2cn(Cc3c(OC)cccc3OC)nc12` [Compound 43]: the results for the EC50 in experiment [1] and in experiment [2] were 1370 nM and more than 9980 nM, respectively.

On to `CCCCNc1nc(N)nc2cn(Cc3c(OC)cc(CNC)cc3OC)nc12` [Compound 109], for which the EC50 was 91.9 nM in experiment [1] and 99.8 nM in experiment [2].

`COc1cccc(OC)c1Cn1cc2nc(N)nc(NCCC(C)O)c2n1` (stereo not shown) [Compound 51]: the EC50 in experiment [1] was 4730 nM; in experiment [2], more than 29900 nM.

Regarding `CCCCNc1nc(N)nc2cn(Cc3ncc(CNC)cc3OC)nc12` [Compound 163], the EC50 in experiment [1] was found to be 476 nM; in experiment [2], 809 nM.

Turning to `CCCNc1nc(N)nc2cn(Cc3c(OC)cccc3OC)nc12` [Compound 26], the EC50 in experiment [1] amounted to 464 nM; in experiment [2], 1890 nM.

`CCC[C@@H](CO)Nc1nc(N)nc2cn(Cc3ccc(N4CCN(C(=O)C5CCC(CN6C(=O)C=CC6=O)CC5)CC4)cc3OC)nc12` (stereo partly shown) [Compound 153]: the EC50 in experiment [1] was determined as 1060 nM; in experiment [2], 3140 nM.

As to `CCC[C@@H](CO)Nc1nc(N)nc2cn(Cc3ccc(CNC)cc3OC)nc12` [Compound 155], the EC50 in experiment [1] came to 2460 nM; in experiment [2] it was 6530 nM.

In the case of `C=CCN(C)Cc1cc(OC)c(Cn2cc3nc(N)nc(N[C@H](CO)CCC)c3n2)c(OC)c1` [Compound 161], the results for the EC50 in experiment [1] and in experiment [2] were 42.2 nM and 91 nM, respectively.

In the case of `COc1ccccc1Cn1cc2nc(N)nc(N3CCC(CO)C3)c2n1` (stereo not shown) [Compound 24], the results for the EC50 in experiment [1] and in experiment [2] were 2450 nM and more than 29900 nM, respectively.

As for `CCCCNc1nc(N)nc2cn(Cc3ccc(C4CCNC4)cc3)nc12` (stereo not shown) [Compound 198], the results for the EC50 in experiment [1] and in experiment [2] were 396 nM and 835 nM, respectively.

Turning to `CCCCNc1nc(N)nc2cn(Cc3ccc(CN4CCNCC4)cc3OC)nc12` [Compound 61], the results for the concentration for a half-maximal effect (EC50) in experiment [1] and in experiment [2] were 344 nM and 438 nM, respectively.

As for `CCCCNc1nc(N)nc2cn(Cc3ncc(CN4CCNCC4)cc3OC)nc12` [Compound 94], the results for the EC50 in experiment [1] and in experiment [2] were 2040 nM and 4960 nM, respectively.

`CCCCNc1nc(N)nc2cn(Cc3c(OC)cccc3OCCCC(=O)OC)nc12` [Compound 206]: the values for the EC50 in experiment [1] and in experiment [2] were 380 nM and 2640 nM, respectively.

Regarding `CCC[C@H](CO)Nc1nc(N)nc2cn(Cc3c(OC)cccc3OC)nc12` [Compound 107], the EC50 in experiment [1] was determined as 213 nM; in experiment [2], 3020 nM.

As for `CCCCNc1nc(N)nc2cn(Cc3c(OC)cc(CN(C)CCCN)cc3OC)nc12` [Compound 141], the figures for the EC50 in experiment [1] and in experiment [2] were 409 nM and 413 nM, respectively.

`CCCCNc1nc(N)nc2cn(Cc3c(OC)ccc(CCN)c3OC)nc12` [Compound 79]: the figures for the EC50 in experiment [1] and in experiment [2] were 4450 nM and 1810 nM, respectively.

Consider `CCC[C@@H](CO)Nc1nc(N)nc2cn(Cc3ccccc3OC)nc12` [Compound 130], for which the EC50 in experiment [1] is 370 nM; in experiment [2] it was 734 nM.

Consider `CCC[C@@H](CO)Nc1nc(N)nc2cn(Cc3c(OC)cc(CN(C)CCCN)cc3OC)nc12` [Compound 210], for which the EC50 in experiment [1] was 20100 nM; in experiment [2] it was 15500 nM.

Regarding `CCCCNc1nc(N)nc2cn(Cc3ccc(C(C)N(C)CCC)cc3OC)nc12` (stereo not shown) [Compound 241], the values for the EC50 in experiment [1] and in experiment [2] were 36 nM and 725 nM, respectively.

On to `CCCCNc1nc(N)nc2cn(Cc3c(OC)cc(C(C)N)cc3OC)nc12` (stereo not shown) [Compound 214], for which the EC50 in experiment [1] turned out to be 525 nM; in experiment [2] it was 235 nM.

With `C=CC(=O)NC[C@H]1CC[C@H](C(=O)N2CCN(c3ccc(Cn4cc5nc(N)nc(NCCCC)c5n4)c(OC)c3)CC2)CC1` [Compound 120], the values for the EC50 in experiment [1] and in experiment [2] were 112 nM and 2220 nM, respectively.

As for `CCCCNc1nc(N)nc2cn(Cc3ccc(C4CCCN4)cc3OC)nc12` (stereo not shown) [Compound 239], the EC50 in experiment [1] amounted to 154 nM; in experiment [2], 2600 nM.

For the compound `CCCCNc1nc(N)nc2cn(Cc3c(OC)ccc(CN4CCNCC4)c3OC)nc12` [Compound 78], the values for the EC50 in experiment [1] and in experiment [2] were 2650 nM and 2560 nM, respectively.

`CCCCNc1nc(N)nc2cn(Cc3ccc(CCO)cc3OC)nc12` [Compound 128]: the EC50 in experiment [1] worked out at 95.2 nM; in experiment [2], 633 nM.

On to `CCCCNc1nc(N)nc2cn(CCc3ccccc3OC)nc12` [Compound 36], for which the EC50 in experiment [1] was 3100 nM; in experiment [2] it was more than 29900 nM.

As to `CCCCNc1nc(N)nc2cn(Cc3ncnn3C)nc12` [Compound 174], the EC50 in experiment [1] came out at 1450 nM; in experiment [2], 8320 nM.

With `CCC[C@@H](CO)Nc1nc(N)nc2cn(Cc3c(OC)cccc3OC)nc12` [Compound 108], the EC50 in experiment [1] worked out at 29.3 nM; in experiment [2] it was 116 nM.

As for `CCC[C@H](CO)Nc1nc(N)nc2cn(Cc3ccccc3OC)nc12` [Compound 29], the EC50 in experiment [1] was determined as 2770 nM; in experiment [2], 28200 nM.

In the case of `CCCCNc1nc(N)nc2cn(Cc3ccccc3Cl)nc12` [Compound 4], the EC50 in experiment [1] turned out to be 578 nM; in experiment [2] it was 6540 nM.

For the compound `CCCCCNc1nc(N)nc2cn(Cc3c(OC)cccc3OC)nc12` [Compound 28], the EC50 in experiment [1] was found to be 214 nM; in experiment [2], 1010 nM.

On to `C=CCN(C)Cc1cnc(Cn2cc3nc(N)nc(N[C@H](CO)CCC)c3n2)c(OC)c1` [Compound 185], for which the EC50 in experiment [1] worked out at 382 nM; in experiment [2], 103 nM.

Regarding `CCCCNc1nc(N)nc2cn(Cc3nnco3)nc12` [Compound 212], the results for the EC50 in experiment [1] and in experiment [2] were 7750 nM and 8140 nM, respectively.

Take `CCCNC(C)c1ccc(Cn2cc3nc(N)nc(N[C@H](CO)CCC)c3n2)c(OC)c1` (stereo partly shown) [Compound 231]: the values for the EC50 in experiment [1] and in experiment [2] were 619 nM and 48.9 nM, respectively.

Consider `CCCCNc1nc(N)nc2cn(Cc3ccc(C4CCNC4=O)cc3)nc12` (stereo not shown) [Compound 202], for which the figures for the EC50 in experiment [1] and in experiment [2] were 354 nM and 3470 nM, respectively.

Regarding `CCCCNc1nc(N)nc2cn(Cc3c(OC)cc(CN4CCN(C(=O)C5CCC(CN6C(=O)CC(SC[C@H](N)C(=O)O)C6=O)CC5)CC4)cc3OC)nc12` (stereo partly shown) [Compound 89], the EC50 in experiment [1] came to 2620 nM; in experiment [2], 24600 nM.
